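Growth conditions: 96-well plates. Treatment: test compound, 48 hours, 5 concentrations. Analysis: linear interpolation between bracketing concentrations; unreached endpoints set to highest concentration. TGI marks complete inhibition of growth.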
What was measured:
Assay in all cases: NCI tumour cell line growth inhibition, 48 h
[1] = system: P388 leukemia
[2] = system: M19-MEL melanoma
[3] = system: SN12K1 renal
[4] = system: P388/ADR leukemia
[5] = system: RXF-631 renal
[6] = system: LXFL 529 NSCLC

Row | Structure (SMILES) | TGI [2] | TGI [6] | other results
1 | CC1CC(C)(O)C2C3(C)CCCC2(COC3=O)C12CCC1(CCOC1=O)O2 (stereo unspecified) | > 250 µM | – | TGI [1]: > 250 µM; TGI [3]: > 250 µM; TGI [4]: > 116 µM
2 | CCCCCCCCCCCCCCCCCCN(C)CC(COC)OP(=O)([O-])OCC[N+](C)(C)C (stereo unspecified) | 10.1 µM | 7.98 µM | TGI [5]: 22 µM
3 | O=C(O)C1=C(CO)Oc2cc3c(cc2C1c1ccc2c(c1)OCO2)OCO3 (stereo unspecified) | > 100 µM | – | TGI [5]: > 100 µM
4 | [O-]c1c2c(nn1-c1ccc(F)cc1)c1ccccc1c[n+]2Cc1ccccc1 | – | 18.8 µM | –
5 | O=C1c2cc3c(cc2[C@@H]2C(O)[C@H]4O[C@H]4C4CCN1C42)OCO3 (stereo partly specified) | – | > 37.5 µM | –
6 | Nc1[nH]c(=O)nc2c1cnn2COCCO | – | > 100 µM | –
7 | O=P1(Oc2ccc(Cl)cc2Cl)Oc2cc3ccccc3cc2O1 | – | – | TGI [1]: 32.6 µM; TGI [3]: > 100 µM; TGI [4]: 64.1 µM
8 | CCOC(=O)C(C(=O)OCC)c1cc(-c2cc3ccccc3o2)oc(=O)c1C#N | – | 41.8 µM | –

Source: PubChem BioAssay (NCI)
